From patent US20200138921A1, “METHODS OF PREVENTING AND TREATING DISEASES CHARACTERIZED BY SYNAPTIC DYSFUNCTION AND NEURODEGENERATION INCLUDING ALZHEIMER'S DISEASE” (The Trustees of Columbia University in the City of New York, priority 2017, published 2020)

What was measured:
Type in all cases: cell-based, rat
[1] = system: Ube3A; experiment: Immunoprecipitation of HA-Ube3A and phospho-tyrosine immunoblot in B35 cells; conditions: B35 cells pre-treated with STI-571 for 1 hour prior to oAβ
Description: (§1) Hippocampal neuron cultures from both male and female rat embryos (E17-18) were prepared following a slightly modified version of the method of Brewer et al. 1996. Hippocampal neurons were kept in culture at 37° C. with 5% CO2 in Neurobasal medium (ThermoFisher) with B27 (ThermoFisher) supplement and Glutamax (ThermoFisher) and plated at a density of 2.5×10^5 cell/ml on dishes coated with poly-D-lysine (ThermoFisher). For the experiments, neurons were used after 14-21 days in vitro (DIV). Rat neuroblastoma B35 cells were cultured and maintained in DMEM (ThermoFisher) supplemented with 10% fetal bovine serum (FBS; Invitrogen) and Glutamax (ThermoFisher).
Cells were collected and homogenized with IP lysis buffer (ThermoFisher) supplemented with Halt protease and phosphatase inhibitor (ThermoFisher). Cell extracts were incubated overnight at 4° C. with 1.0 μg HA antibody (Cell Signaling) or mouse IgG (Cell Signaling) as a negative control Immunocomplexes were incubated with magnetic beads covalently coated with protein G (Invitrogen) on a rotator for 2 hours, at 4° C. The beads were then pelleted with a magnet and washed 3 times with 1× cell lysis buffer (Cell Signaling) supplemented with complete mini protease inhibitor mixture (Roche). The immunocomplexes were resuspended in cell lysis buffer, LDS-sample buffer (Invitrogen), […] dithiothreitol (DTT), and analyzed by Western blotting. […]

[2] = system: Ube3A; experiment: Ube3A protein degradation in B35 cells (cycloheximide chase); conditions: pre-treatment with STI
Description: FIG. 5A is a graph showing the quantification of Western blots of the levels of Ube3A and GAPDH (as house-keeping protein) of B35 cells treated with cycloheximide (CHX) or CHX and oAβ for 4, 8 and 16 hours. […] Graphs represent mean values and standard deviation. Significance determined by one-way ANOVA followed by Tukey Post Hoc multiple comparisons.

[3] = system: Ephexin-5; experiment: Western blot of Ephexin-5 in cultured primary hippocampal neurons; conditions: hippocampal neurons, Penetratin-1-linked siRNA for 24 hours
Description: as §1
Whole frozen mouse hippocampi, human brain specimens, and cultured cells were homogenized in RIPA buffer (ThermoFisher) supplemented with protease and phosphatase inhibitor cocktail (ThermoFisher), using a Teflon dounce homogenizer and centrifuged at 14,000 rpm for 10 minutes at 4° C. Supernatants were collected, normalized by BCA assay (ThermoFisher), and prepared for loading using sample buffer (SB) 4× (ThermoFisher) and dithiothreitol (DTT) 10× (ThermoFisher).
Cultured primary hippocampal neurons (14 DIV) were treated with 300 nM of a topoisomerase type I inhibitor, topotecan (TOP) or a vehicle control as described in Huang et al. 2012. Some cells were treated for 24 hours and some for 72 hours. All cells were harvested and whole cell lysates prepared for Western blot analysis of Ube3A and Ephixin-5.

[4] = system: RhoA-GTP; experiment: Rho-GTPase activity pull-down assay in hippocampal neurons; conditions: siRNA 24 hours prior to oAβ for 8 hours
Description: Rho-GTPase pull-down assays were performed following the manufacturer's protocol (Cytoskeleton, Inc.). Briefly, cells were washed once with ice-cold PBS and lysed with RIPA/M-PER buffer (1:1; ThermoFisher). Lysates were incubated on ice for 5 minutes, and centrifuged (12,000 g) for 5 minutes. 30 μl was used for input and the remaining lysates were incubated with Rhotekin-RBD (RhoA) or PAK-RBD (Rac1) protein beads (25 μl) by rotating for 1 hour at 4° C. Beads were washed with ice-cold PBS (500 μl, 3×) and collected, and bound proteins were eluted with 1× sample buffer (30 μl). Input and eluted samples were then analyzed by gel electrophoresis and Western blotting using either a RhoA or Rac1-specific antibody.
To test whether increasing Ube3A could rescue the effects of oAβ, cultured primary hippocampal neurons (14 DIV) were pretreated with 300 nM of TOP or control PBS. At day 3 the cells were treated with oligomeric Aβ for 6 hours and whole cell lysates prepared for Western blot analysis of Ube3A protein levels and levels of active GTPase levels including RhoA-GTP, Rac1-GTP and Cdc42-GTP.

[5] = system: primary hippocampal neurons; experiment: Dendritic spine density in cultured hippocampal neurons (DiOlistic labeling); conditions: siRNA pre-treatment, oAβ 24 hours
Description: The protocol for diolistic labeling of neurons was adapted from Gan et al. 2000 and Gan et al. 2009. Briefly, 100 mg of tungsten particles (1.1 μm diameter; Bio-Rad) were thoroughly precipitated with 5.0 mg of lipophilic dye (DiI; ThermoFisher) and dissolved in 100 μl of methylene chloride. Dye-coated particles were shot 2-3 times into the cells using the Helios gene gun system (Bio-Rad) and left in 0.1 M PBS overnight to allow dye diffusion along neuronal processes. Cells were post-fixed with 4% paraformaldehyde (Pierce) for 1 hour to preserve staining, then mounted onto glass slides using Gel Mount (Biomeda) and stored at 4° C. in the dark.
Labeled neurons were imaged using the Laser Scanning Microscope (LSM) 510 Meta confocal microscope (Zeiss), equipped with 40×1.3 NA and 100×1.4 NA oil-immersion objectives. The NIH Image software program ImageJ was used the quantify diolistic-labeled cultured neurons. An average of 12 compressed images (20 μm thick) consisting of pyramidal neurons were quantified for each treatment. Spines were counted with NeuronStudio software in a blinded manner and spine density was represented in number of spine per μm dendritic length. Statistical analysis was performed using the statistics package GraphPad Prism.
To further test whether increasing Ube3A could rescue the effects of oAβ, cultured primary hippocampal neurons (14 DIV) were pretreated with 300 nM of TOP or control PBS. The neurons were then treated with oAβ for 24 hours, and whole cell lysates prepared for Western blot analysis, or fixed for microscopy.

Cc1ccc(NC(=O)c2ccc(CN3CCN(C)CC3)cc2)cc1Nc1nccc(-c2cccnc2)n1 [STI-571]
Ube3A phosphorylation by oAβ [1]: complete abolishment
oAβ-induced decrease in Ube3A protein [2]: completely blocked

Penetratin-1-linked siRNA: Ephexin-5 siRNA (SEQ ID NO: 1 and 2) cross-linked via a Cys-Cys bond to the delivery peptide Penetratin-1 (chain 1 GUCCUUUCUCCGUGUAUGUUU; chain 2 ACAUACACGGAGAAAGGACUU; Penetratin-1 peptide attached via Cys-Cys disulfide, further chemistry not given here)
levels of Ephexin-5 [3]: depleted
oAβ-induced upregulation of RhoA activity [4]: completely blocked
loss of dendritic spine in neurons treated with oAβ [5]: completely rescued
